Results reported in article PMC12675575, “A BRET biosensor for measuring uncompetitive engagement of PRMT5 complexes in cells” (Nature Communications, 2025).
Several values for one entry are separate records, joined by “and”; a condition that tells them apart may be missing. Equal entries are not always repeated.

Target: T1, BRD9 (Homo sapiens, UniProt Q9H8M2)
T1 construct: host or cells: HEK293
T1 sequence (Q9H8M2 1-597): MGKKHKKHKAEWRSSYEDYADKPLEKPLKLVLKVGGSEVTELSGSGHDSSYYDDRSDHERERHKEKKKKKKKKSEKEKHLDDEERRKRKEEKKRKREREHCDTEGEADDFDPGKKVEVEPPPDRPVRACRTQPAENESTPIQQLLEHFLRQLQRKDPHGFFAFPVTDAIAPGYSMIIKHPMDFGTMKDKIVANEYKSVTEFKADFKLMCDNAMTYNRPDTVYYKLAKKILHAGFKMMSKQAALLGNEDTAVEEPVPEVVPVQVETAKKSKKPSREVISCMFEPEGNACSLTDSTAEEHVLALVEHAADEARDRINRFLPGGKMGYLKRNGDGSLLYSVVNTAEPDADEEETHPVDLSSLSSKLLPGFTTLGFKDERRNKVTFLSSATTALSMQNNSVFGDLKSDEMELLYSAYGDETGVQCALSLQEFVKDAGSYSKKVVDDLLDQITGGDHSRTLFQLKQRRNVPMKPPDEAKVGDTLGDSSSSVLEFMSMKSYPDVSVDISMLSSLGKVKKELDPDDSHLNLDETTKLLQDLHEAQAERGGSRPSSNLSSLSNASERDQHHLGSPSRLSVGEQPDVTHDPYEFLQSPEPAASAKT
Test: CBH-002 affinity curve, HEK293, NL-BRD9 fusion (nuclear control)
Format: cell-based
Parameters: BRET, CBH-002 + DMSO / BRET, CBH-002 + GSK3326595: unit not given here
Details: for BRET, CBH-002 + DMSO / BRET, CBH-002 + GSK3326595: Figure S2F NL-BRD9, log([CBH-002])
Method: HEK293 cells (ATCC) were cultured in DMEM (Thermo Fisher) + 10% (v/v) FBS (Seredigm), and HCT116 cells (Horizon Discovery, #PAR-034 and #R02-033) were cultured in McCoy’s 5A (Thermo Fisher) + 10% FBS, with incubation in a humidified, 37 °C/5% CO2 incubator. Cells were split 1–3 days prior to performing experiments and used at roughly 80% confluency. […] Cells were transfected according to the manufacturer’s protocol using FuGENE HD (Promega). NanoLuc fusion DNA was diluted into Transfection Carrier DNA (Promega) in Opti-MEM at a ratio of 1:9 (mass/mass), and FuGENE HD was added at a ratio of 1:3 (μg DNA:μL lipid). For experiments using WDR77, untagged WDR77 DNA (Promega) was used in place of Carrier DNA. Formed complexes were combined with cells resuspended to a density of 2 × 10^5 cells/mL in Opti-MEM + 1% FBS at a ratio of 1:20 (vol:vol). Cells were plated into a flask and incubated at 37 °C in a humidified 5% CO2 atmosphere for 18–24 h, before being lifted and seeded into 96-well non-binding surface-treated plates (Corning). Cells were seeded at a density of 2 × 10^5 cells/mL in Opti-MEM + 1% FBS in 100 μL (96-well). The BRET probe CBH-002 was prepared first as a 100× stock in 100% DMSO (Sigma) and then diluted to a 20× stock in NanoBRET Tracer Dilution buffer (Promega). Test compounds were prepared as 1000× stocks in 100% DMSO and diluted to 10× stocks in Opti-MEM to prepare working stocks. […] NanoBRET Complete 3x Substrate was prepared by combining Nano-Glo Substrate and Extracellular NanoLuc Inhibitor in Opti-MEM, according to the manufacturer’s protocol (Promega). NanoBRET Complete 3× Substrate was added to cells and plates were measured on either a PheraSTAR FSX equipped with 450 nm (donor) and 610 nm (acceptor) filters, or a GloMAX Discover equipped with 450/8 nm BP (donor) and 600 nm LP (acceptor) filters, using a 0.3 s integration time.
EC50 values were obtained by fitting the BRET probe and compound affinity curves to a sigmoidal four-parameter fit model in Graphpad Prism:1 Y=Ymin+Ymax−Ymin/1+10^LogEC50−Xh where h is the Hill Slope.

BRET, CBH-002 + DMSO (uM 0.04576): 1.963 and 1.6096 and 1.753 | BRET, CBH-002 + GSK3326595 (uM 0.04576): 1.941 and 1.894 and 1.502 | BRET, CBH-002 + DMSO (uM 0.52288): 4.746 and 4.673 and 4.368 | BRET, CBH-002 + GSK3326595 (uM 0.52288): 4.553 and 4.659 and 4.5888 | BRET, CBH-002 + DMSO (uM 1): 11.9924 and 12.071 and 11.0213 | BRET, CBH-002 + GSK3326595 (uM 1): 12.0831 and 11.2046 and 11.118 | BRET, CBH-002 + DMSO (uM -0.43136): 0.6619 and 0.5821 and 0.5347 | BRET, CBH-002 + GSK3326595 (uM -0.43136): 0.7878 and 0.6009 and 0.5811 | CBH-002 engagement at BRD9 (printed BDR9) (HEK293, NL-BRD9): did not show engagement
Compound: O=C(CCc1ccc2n1[B-](F)(F)[N+]1=C(c3ccc[nH]3)C=CC1=C2)NCCCCC(=O)N1CCC(Nc2cc(C(=O)NC[C@H](O)CN3CCc4ccccc4C3)ncn2)CC1 [CBH-002]
